Measured values as given in patent publication US7973024B2, “24-sulfoximine vitamin D3 compounds” (Cyctochroma Inc., priority 2002, dated 2011).

Experiments:
[1] = target: T1, CYP24 (Homo sapiens, UniProt Q07973); experiment: CYP24 enzyme assay (stable cell line V79-CYP24 cells); assay type: cell-based; settings: [3H-1β]-1α,25(OH)2D3 20 nM, 2 hours
T1 construct: expressed in transfected cells
T1 sequence (Q07973 36-514): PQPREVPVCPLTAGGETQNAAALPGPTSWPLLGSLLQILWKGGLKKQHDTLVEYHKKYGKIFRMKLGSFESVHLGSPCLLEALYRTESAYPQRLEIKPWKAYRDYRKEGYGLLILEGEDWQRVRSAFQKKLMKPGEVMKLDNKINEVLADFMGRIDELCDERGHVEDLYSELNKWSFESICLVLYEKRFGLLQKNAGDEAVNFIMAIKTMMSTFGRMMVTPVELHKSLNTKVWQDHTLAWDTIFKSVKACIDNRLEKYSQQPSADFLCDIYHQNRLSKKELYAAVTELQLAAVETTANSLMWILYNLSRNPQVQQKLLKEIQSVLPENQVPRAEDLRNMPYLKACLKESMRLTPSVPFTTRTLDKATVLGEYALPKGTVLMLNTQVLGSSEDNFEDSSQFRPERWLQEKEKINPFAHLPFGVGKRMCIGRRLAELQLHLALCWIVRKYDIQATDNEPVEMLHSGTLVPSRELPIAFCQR
Experimental: 1. Preparation of Cell Suspension • On the day of the assay, washed the monolayer of V79-CYP24 cells once with 1×PBS buffer and then trypsinize for 5 min at room temperature (approx. 22° C.). Added 1×PBS. Collected cells into tube, centrifuged cells (500×g, 5 min) and resuspended in DMEM+1% BSA media.
2. Cell Plating • Added 150 μl of cell suspension to appropriately labelled wells of a 48-well plate. Incubated plate for 30 minutes at 37° C. in a humidified atmosphere containing 5% CO2 for adherence of cells to wells.
3. Compound Addition • Added 25 μl of inhibitor (10^−6 to 10^−9 M) and then after 10 min added 25 μl of substrate [^3H-1β]-1α,25(OH)2D3 (20 nM) for 2 hours at 37° C. in a humidified atmosphere containing 5% CO2. Both inhibitor and substrate were prepared in DMEM with 1% BSA media in the absence and presence of 100 μM DPPD.
4. Lipid Extraction and Counting • Added 500 μL of methanol to stop the reaction. Transferred to tube. Added 250 μl of dichloromethane and vortexed. Added 250 μl of dichloromethane and 250 μl of saturated KCL and vortexed. Centrifuged at 4000 rpm for 5 min. Triplicate 100 μl aliquots of aqueous fraction were mixed with 600 μl of scintillation fluid and the radioactivity was measured using a scintillation counter. All values were normalized for background. (iii) Results.

[2] = target: T2, CYP27A1 (Homo sapiens, UniProt Q02318); experiment: CYP27A1 enzyme assay; assay type: biochemical
T2 sequence (Q02318 34-531): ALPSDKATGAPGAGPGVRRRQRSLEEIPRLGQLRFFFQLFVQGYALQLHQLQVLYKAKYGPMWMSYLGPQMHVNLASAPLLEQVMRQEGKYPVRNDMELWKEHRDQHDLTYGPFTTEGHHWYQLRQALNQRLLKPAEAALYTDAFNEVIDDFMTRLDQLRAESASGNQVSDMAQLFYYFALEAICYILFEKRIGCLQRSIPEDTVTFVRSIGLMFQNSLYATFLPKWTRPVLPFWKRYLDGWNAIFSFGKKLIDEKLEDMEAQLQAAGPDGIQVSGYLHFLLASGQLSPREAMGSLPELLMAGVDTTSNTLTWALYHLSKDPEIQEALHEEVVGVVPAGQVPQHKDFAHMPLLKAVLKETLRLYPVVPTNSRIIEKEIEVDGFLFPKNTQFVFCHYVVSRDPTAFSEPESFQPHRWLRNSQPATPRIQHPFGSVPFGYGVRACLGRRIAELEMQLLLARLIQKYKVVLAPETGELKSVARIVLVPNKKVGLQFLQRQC

IC50 [1] | IC50 [2] | Structure (SMILES)
4 nM | – | C=C1/C(=C\C=C2/CCC[C@]3(C)[C@@H]([C@H](C)CCS(=N)(=O)c4ccccc4)CC[C@@H]23)C[C@@H](O)C[C@@H]1O (single isomer, unassigned) [I(a)]
29 nM | > 1000 nM | C=C1/C(=C\C=C2/CCC[C@]3(C)[C@@H]([C@H](C)CCS(=O)(=NC)c4ccccc4)CC[C@@H]23)C[C@@H](O)C[C@@H]1O (single isomer, unassigned) [I(e)]
26 nM | > 1000 nM | C=C1/C(=C\C=C2/CCC[C@]3(C)[C@@H]([C@H](C)CCS(=O)(=NC)c4ccccc4)CC[C@@H]23)C[C@@H](O)C[C@@H]1O (single isomer, unassigned) [I(g)]
8.5 nM | – | C[C@H](CCS(=N)(=O)c1ccccc1)[C@H]1CC[C@H]2/C(=C/C=C3C[C@@H](O)C[C@H](O)C3)CCC[C@]12C (single isomer, unassigned) [I(i), 24-Phenyl Sulfoximine 19-Nor-Vitamin-D3]
